From US5344843A, “Cat-1 inhibitors, pharmaceutical compositions and methods of use” (Hoffman-La Roche Inc., priority 1992, dated 1994) come the findings set out here.

The target of one assay is T1, CAT-1 (carnitine acyltransferase 1) (Rattus norvegicus, UniProt Q63704).
T1 construct: This preparation is used as the isolated mitochondrial preparation; from tissue; host or cells: rat heart (atria removed), isolated mitochondria
T1 sequence (Q63704 1-772): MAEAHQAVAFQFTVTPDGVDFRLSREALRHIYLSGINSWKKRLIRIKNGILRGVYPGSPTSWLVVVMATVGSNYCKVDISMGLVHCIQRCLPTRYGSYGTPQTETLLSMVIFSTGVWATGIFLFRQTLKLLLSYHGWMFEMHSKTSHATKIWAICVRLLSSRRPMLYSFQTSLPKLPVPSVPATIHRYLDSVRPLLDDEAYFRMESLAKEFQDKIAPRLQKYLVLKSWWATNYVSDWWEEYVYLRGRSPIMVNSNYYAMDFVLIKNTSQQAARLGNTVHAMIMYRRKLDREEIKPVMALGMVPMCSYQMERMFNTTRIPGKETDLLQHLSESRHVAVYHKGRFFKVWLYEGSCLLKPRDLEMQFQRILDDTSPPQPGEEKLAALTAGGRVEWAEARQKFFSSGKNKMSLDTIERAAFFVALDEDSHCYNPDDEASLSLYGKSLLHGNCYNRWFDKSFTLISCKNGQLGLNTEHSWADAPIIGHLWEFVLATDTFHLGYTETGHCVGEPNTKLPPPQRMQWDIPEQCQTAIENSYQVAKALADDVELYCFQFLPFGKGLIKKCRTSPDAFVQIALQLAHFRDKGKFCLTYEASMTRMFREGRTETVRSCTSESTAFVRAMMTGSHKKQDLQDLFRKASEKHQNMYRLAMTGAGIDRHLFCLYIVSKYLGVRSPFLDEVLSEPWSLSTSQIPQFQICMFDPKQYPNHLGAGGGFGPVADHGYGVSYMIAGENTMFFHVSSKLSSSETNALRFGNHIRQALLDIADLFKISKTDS
Put plainly: Primary Screen--Inhibition of CAT-1 in isolated mitochondria. It is filed as biochemical.
Conditions: not given
As to `O=C(O)C(=O)c1ccc(OCCOc2cc3ccccc3c3ccccc23)cc1` [Example 110, alpha-oxo-4-[[2-(9-phenanthrenyloxy)ethyl]oxy]benzeneacetic acid], half-maximal inhibition (IC50) was put at 0.1 µM.

`Cc1nnc2n1-c1sc(CCCOc3ccc(C(=O)C(=O)O)cc3)cc1C(c1ccccc1Cl)=NC2` [Example 296]: the IC50 (usually the midpoint of a concentration-inhibition curve) is 10 µM.

Still in this assay, the particulars now being: @ 10 μM.
As for `CC(C)(C)c1cc(C(=O)CCCCOc2ccc(C(=O)C(=O)O)cc2)cc(C(C)(C)C)c1O` [Example 266, 4-[5-[3,5-bis(1,1-dimethylethyl)-4-hydroxyphenyl]-5-oxopentyloxy]-alpha-oxobenzeneacetic acid], the inhibition (usually the drop in the measured response relative to a control, in per cent) at 10 µM turned out to be 48%.

Staying with this assay, now noted: rat heart mitochondria, reduction of palmitoyl carnitine formation by 50%; read-out: Primary Screen IC50.
In the case of `O=C(O)C(=O)c1ccc([S+]([O-])CCOc2ccc3ccccc3c2)cc1` (racemic) [Example 151, rac.-4-[[2-(2-naphthalenyloxy)ethyl]sulfinyl]-alpha-oxobenzeneacetic acid], the IC50 stood at 5.5 µM.

`O=C(O)C(=O)c1ccc(OCCOc2ccc([N+](=O)[O-])cc2)cc1` [Example 47, 4-[[2-(4-nitrophenoxy)ethyl]oxy]-alpha-oxobenzeneacetic acid]: the IC50 was determined as 3 µM.

In the case of `O=C(O)C(=O)c1ccc(OCCCCSc2ccc3ccccc3c2)cc1` [Example 92, 4-[[4-(2-naphthalenylthio)butyl]oxy]-alpha-oxobenzeneacetic acid], the IC50 stood at 3.5 µM.

Consider `CN(C)/N=C(/C(=O)O)c1ccc(OCCOc2ccc3ccccc3c2)cc1` [Example 320, (E)-alpha-(dimethylhydrazono)-4-[2-(2-naphthalenyloxy)ethoxy]benzeneaceticacid], for which the IC50 worked out at 1.8 µM.

For `O=C(O)C(=O)c1ccc(OCCOc2cc3ccccc3cc2OCCOc2ccccc2)cc1` [Example 116, alpha-oxo-4-[[2-[3-(2-phenoxyethoxy)-2-naphthalenyloxy]ethyl]oxy]benzeneacetic acid], the IC50 was 0.65 µM.

Take `CCO/N=C(\C(=O)O)c1ccc(OCCOc2ccc3ccccc3c2)s1` [Example 310, (E)-alpha-(ethoxyimino)-5-[2-(2-naphthalenyloxy)ethoxy]-2-thiopheneacetic acid]: the IC50 came out at 0.24 µM.

For the compound `O=C(O)C(=O)c1ccc(OCCCc2ccc(F)cc2)cc1` [Example 27, 4-[[3-(4-fluorophenyl)propyl]oxy]-alpha-oxobenzeneacetic acid], the IC50 is 3 µM.

For the compound `O=C(O)C(=O)c1ccc(OCCOc2cc3ccccc3cc2OCCO)cc1` [Example 118, 4-[[2-[3-(2-hydroxyethoxy)-2-naphthalenyloxy]ethyl]oxy]-alpha-oxobenzeneacetic acid], the IC50 stood at 0.25 µM.

For `COc1cc(OCCOc2ccc(C(=O)C(=O)O)cc2)cc(OC)c1OC` [Example 65, 4-[[2-(3,4,5-trimethoxyphenoxy)ethyl]oxy]-alpha-oxobenzeneacetic acid], the IC50 worked out at 3 µM.

Turning to `NS(=O)(=O)c1ccc(OCCOc2ccc(C(=O)C(=O)O)cc2)cc1` [Example 53, 4-[[2-[4-(aminosulfonyl)phenoxy]ethyl]oxy]-alpha-oxobenzeneacetic acid], the IC50 turned out to be 4 µM.

`O=C(O)C(=O)c1ccc(OCCOc2ccc(F)cc2)cc1` [Example 43, 4-[[2-(4-fluorophenoxy)ethyl]oxy]-alpha-oxobenzeneacetic acid]: the IC50 came out at 0.8 µM.

In the case of `Cc1cc(OCCOc2ccc3ccccc3c2)ccc1C(=O)C(=O)O` [Example 183, 2-methyl-4-[2-(2-naphthalenyloxy)ethoxy]-alpha-oxobenzeneacetic acid (4:1) hydrate], the IC50 was found to be 4.7 µM.

`O=C(O)C(=O)c1ccc(OCCCCc2ccncc2)cc1` [Example 125, alpha-oxo-4-[4-(4-pyridinyl)butoxy]benzeneacetic acid]: the IC50 was found to be 2 µM.

Regarding `O=C(O)C(=O)c1ccc(OC/C=C/c2ccc(F)cc2)cc1` [Example 29, (E)-4-[[3-(4-fluorophenyl)-2-propenyl]oxy]-alpha-oxobenzeneacetic acid], the IC50 was found to be 0.25 µM.

For the compound `CC1(C)OCC(COC(=O)C(=O)c2ccc(OCCOc3ccc4ccccc4c3)cc2)O1` (racemic) [Example 169, rac.-4-[[2-(2-naphthalenyloxy)ethyl]oxy]-alpha-oxobenzeneacetic acid (2,2-dimethyl-1,3-dioxolan-4-yl)methyl ester], the IC50 was 3.5 µM.

Turning to `O=C(O)C(=O)c1ccc(OCCOC2CCc3ccccc3C2)cc1` (racemic) [Example 114, rac.-alpha-oxo-4-[[2-(1,2,3,4-tetrahydro-2-naphthalenyloxy)ethyl]oxy]benzeneacetic acid], the IC50 turned out to be 2.8 µM.

With `O=C(O)C(=O)c1ccc(OCCOCCOc2ccc(C(=O)C(=O)O)cc2)cc1` [Example 78, 4,4'-[oxybis(2,1-ethanedienyloxy)]bis(alpha-oxobenzeneacetic acid)], the IC50 is 2 µM.

For the compound `COCCOc1ccc(C(=O)C(=O)O)cc1` [Example 97, 4-[[2-(methoxy)ethyl]oxy]-alphaoxobenzeneacetic acid], the IC50 was 30 µM.

As for `O=C(O)C(=O)c1ccc(OCc2ccccc2)cc1` [Example 19, 4-[(phenylmethyl)oxy]-alpha-oxobenzeneacetic acid], the IC50 turned out to be 90 µM.

`O=C(O)C(=O)c1ccc(OCCCCCCOc2ccccc2)cc1` [Example 75, alpha-oxo-4-[[(6-phenoxy)hexyl]oxy]benzeneacetic acid]: the IC50 amounted to 10 µM.

`O=C(O)C(=O)c1ccc(OCCc2ccccc2)cc1` [Example 21, 4-[(2-phenylethyl)oxy]-alpha-oxobenzeneacetic acid]: the IC50 came to 12 µM.

`O=C(O)C(=O)c1ccc(OCCOc2ccc3ccncc3c2)cc1` [Example 129, 4-[[2-(7-isoquinolyloxy)ethyl]oxy]-alpha-oxobenzeneacetic acid (5:2) molar hydrate]: the IC50 was 0.44 µM.

For `O=C(O)C(=O)c1ccc(OCCCCc2cccnc2)cc1` [Example 123, alpha-oxo-4-[4-(3-pyridinyl)butoxy]benzeneacetic acid], the IC50 amounted to 1.5 µM.

With `O=C(O)C(=O)c1c(Cl)cc(OCCOc2ccc3ccccc3c2)cc1Cl` [Example 191, 2,6-dichloro-4-[2-(2-naphthalenyloxy)ethoxy]-alpha-oxobenzeneacetic acid], the IC50 is 6.7 µM.

Take `O=C(O)C(=O)c1ccc(OCCOc2ccccc2F)cc1` [Example 39, 4-[[2-(2-fluorophenoxy)ethyl]oxy]-alpha-oxobenzeneacetic acid]: the IC50 is 0.6 µM.

Turning to `O=C(O)/C(=N\OCc1ccccc1)c1ccc(OCCOc2ccc3ccccc3c2)s1` [Example 316, (E)-5-[2-(2-naphthalenyloxy)ethoxy]-alpha-[(phenylmethoxy)imino]-2-thiopheneacetic acid], the IC50 was determined as 0.5 µM.

In the case of `O=C(O)C(=O)c1ccc(OCCOc2ccc(Oc3ccccc3)cc2)cc1` [Example 59, alpha-oxo-4-[[2-(4-phenoxyphenoxy)ethyl]oxy]benzeneacetic acid], the 50% inhibitory concentration (IC50) is 10 µM.

Consider `O=C(O)C(=O)c1ccc(OCC(O)COc2ccccc2)cc1` (racemic) [Example 80, rac.-4-[[(2-hydroxy-3-phenoxy)propyl]oxy]-alpha-oxobenzeneacetic acid], for which the IC50 was determined as 8 µM.

For the compound `C=CCO/N=C(/C(=O)O)c1ccc(OCCOc2ccc3ccccc3c2)s1` [Example 312, (Z)-5-[2-(2-naphthalenyloxy)ethoxy]-alpha-[(2-propenyloxy)imino]-2-thiopheneacetic acid], the IC50 came to 0.1 µM.

Take `CC(C)(C)c1cc(SCCCOc2ccc(C(=O)C(=O)O)cc2)cc(C(C)(C)C)c1O` [Example 275, 4-[3-[[3,5-bis(1,1-dimethylethyl)-4-hydroxyphenyl]thio]propoxy]-alpha-oxobenzeneacetic acid]: the IC50 came to 0.57 µM.

`O=C(C(=O)N(CCO)CCO)c1ccc(OCCOc2ccc3ccccc3c2)cc1` [Example 163, N,N-bis(2-hydroxyethyl)-4-[[2-(2-naphthalenyloxy)ethyl]oxy]-alpha-oxobenzeneacetamide]: the IC50 was 3.5 µM.

On to `CCO/N=C(/C(=O)O)c1ccc(OCCOc2ccc3ccccc3c2)s1` [Example 309, (Z)-alpha-(ethoxyimino)-5-[2-(2-naphthalenyloxy)ethoxy]-2-thiopheneacetic acid], for which the IC50 was 0.02 µM.

Turning to `O=C(O)C(=O)c1ccc(OCCOc2ccnc3ccccc23)cc1` [Example 131, alpha-oxo-4-[[2-(4-quinolyloxy)ethyl]oxy]benzeneacetic acid], the IC50 came out at 0.96 µM.

In the case of `CN(C)/N=C(\C(=O)O)c1ccc(OCCOc2ccc3ccccc3c2)cc1` [Example 321, (Z)-alpha-(dimethylhydrazono)-4-[2-(2-naphthalenyloxy)ethoxy]benzeneaceticacid], the IC50 came to 6.5 µM.

`O=C(O)C(=O)c1ccc(OC/C=C/c2ccccc2)cc1` [Example 31, (E)-alpha-oxo-4-[(3-phenyl-2-propenyl)oxy]benzeneacetic acid]: the IC50 is 0.1 µM.
